Laboratory results published in PubChem BioAssay (NCI).
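GI50: concentration for 50% inhibition of growth. At the TGI there is no net growth.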

Legend:
Assay in all cases: NCI tumour cell line growth inhibition, 384-well format
[1] = tested on: CCRF-CEM leukemia
[2] = tested on: LOX IMVI melanoma
[3] = tested on: COLO 205 colon
[4] = tested on: NCI-H522 lung
[5] = tested on: MOLT-4 leukemia
[6] = tested on: OVCAR-4 ovarian
[7] = tested on: IGROV1 ovarian
[8] = tested on: RPMI-8226 leukemia
[9] = tested on: MDA-MB-435 melanoma
[10] = tested on: SN12C renal
[11] = tested on: HOP-92 NSCLC
[12] = tested on: SK-MEL-2 melanoma
[13] = tested on: SR leukemia
[14] = tested on: SK-MEL-28 melanoma
[15] = tested on: OVCAR-8 ovarian
[16] = tested on: SK-OV-3 ovarian
[17] = tested on: UACC-62 melanoma
[18] = tested on: NCI/ADR-RES ovarian
[19] = tested on: BT-549 breast
[20] = tested on: NCI-H226 lung
[21] = tested on: TK-10 renal
[22] = tested on: A549 NSCLC
[23] = tested on: KM12 colon
[24] = tested on: HCT-116 colon
[25] = tested on: NCI-H322M lung
[26] = tested on: PC-3 prostate
[27] = tested on: SNB-19 CNS
[28] = tested on: OVCAR-5 ovarian
[29] = tested on: HCT-15 colon
[30] = tested on: T-47D breast
[31] = tested on: RXF 393 renal
[32] = tested on: MCF7 breast
[33] = tested on: OVCAR-3 ovarian
[34] = tested on: ACHN renal
[35] = tested on: SK-MEL-5 melanoma
[36] = tested on: NCI-H460 NSCLC
[37] = tested on: SF-268 CNS
[38] = tested on: UACC-257 melanoma
[39] = tested on: 786-0 renal
[40] = tested on: HL-60(TB) leukemia
[41] = tested on: SW-620 colon
[42] = tested on: HOP-62 NSCLC
[43] = tested on: SF-295 CNS
[44] = tested on: K-562 leukemia
[45] = tested on: SF-539 CNS
[46] = tested on: CAKI-1 renal
[47] = tested on: HCC-2998 colon
[48] = tested on: HT29 colon
[49] = tested on: A498 renal
[50] = tested on: MDA-MB-231 breast
[51] = tested on: UO-31 renal
[52] = tested on: MDA-MB-468 breast
[53] = tested on: M14 melanoma
[54] = tested on: MALME-3M melanoma
[55] = tested on: U251 glioblastoma
[56] = tested on: DU-145 prostate
[57] = tested on: NCI-H23 lung

Cc1cc(C(=O)NC(C)(C)C)cc(C#Cc2ccc3c4c(oc3c2)C(C)(C)c2cc(NS(C)(=O)=O)ccc2C4=O)n1
GI50 [1]: 1260 nM | TGI [1]: 2830 nM | GI50 [2]: 3200 nM | TGI [2]: 7420 nM | GI50 [3]: 1280 nM | TGI [3]: 3420 nM | GI50 [4]: 813 nM | TGI [4]: 4130 nM | GI50 [5]: 565 nM | TGI [5]: 1700 nM | GI50 [6]: 1340 nM | TGI [6]: 6330 nM | GI50 [7]: 2150 nM | TGI [7]: > 100000 nM | GI50 [8]: 168 nM | TGI [8]: 410 nM | GI50 [9]: 410 nM | TGI [9]: 2030 nM | GI50 [10]: 934 nM | TGI [10]: > 100000 nM | GI50 [11]: 198 nM | TGI [11]: 980 nM | GI50 [12]: 496 nM | TGI [12]: 3100 nM | GI50 [13]: 198 nM | TGI [13]: 420 nM | GI50 [14]: 971 nM | TGI [14]: 5510 nM | GI50 [15]: 1810 nM | TGI [15]: 6230 nM | GI50 [16]: 1930 nM | TGI [16]: 7040 nM | GI50 [17]: 673 nM | TGI [17]: 3960 nM | GI50 [18]: 1590 nM | TGI [18]: 4170 nM | GI50 [19]: 1150 nM | TGI [19]: 4820 nM | GI50 [20]: 1310 nM | TGI [20]: 5410 nM | GI50 [21]: 1800 nM | TGI [21]: 29200 nM | GI50 [22]: 2270 nM | TGI [22]: > 100000 nM | TGI [23]: 1020 nM | GI50 [24]: 1020 nM | TGI [24]: > 100000 nM | GI50 [25]: 2670 nM | TGI [25]: > 100000 nM | GI50 [26]: 2470 nM | TGI [26]: 9210 nM | GI50 [27]: 2920 nM | TGI [27]: > 100000 nM | GI50 [28]: 2080 nM | TGI [28]: 9850 nM | GI50 [29]: 862 nM | TGI [29]: > 100000 nM | GI50 [30]: 631 nM | TGI [30]: 2270 nM | GI50 [31]: 188 nM | TGI [31]: 410 nM | GI50 [32]: 985 nM | TGI [32]: 4350 nM | GI50 [33]: 1460 nM | TGI [33]: 4420 nM | GI50 [34]: 815 nM | TGI [34]: 8300 nM | GI50 [35]: 913 nM | TGI [35]: 2160 nM | GI50 [36]: 1180 nM | TGI [36]: 3020 nM | GI50 [37]: 2170 nM | TGI [37]: > 100000 nM | GI50 [38]: 977 nM | TGI [38]: 3070 nM | GI50 [39]: 642 nM | TGI [39]: 2200 nM | GI50 [40]: 591 nM | TGI [40]: 1780 nM | GI50 [41]: 1260 nM | TGI [41]: 3540 nM | GI50 [42]: 2130 nM | TGI [42]: 6760 nM | GI50 [43]: 1330 nM | TGI [43]: 3880 nM | GI50 [44]: 1310 nM | TGI [44]: > 100000 nM | GI50 [45]: 1160 nM | TGI [45]: 5930 nM | GI50 [46]: 549 nM | TGI [46]: 4110 nM | GI50 [47]: 1730 nM | TGI [47]: 8550 nM | GI50 [48]: 774 nM | TGI [48]: 3060 nM | GI50 [49]: 833 nM | TGI [49]: 4660 nM | GI50 [50]: 3450 nM | TGI [50]: > 100000 nM | GI50 [51]: 365 nM | TGI [51]: 1710 nM | GI50 [52]: 985 nM | TGI [52]: 2850 nM | GI50 [53]: 1080 nM | TGI [53]: 3340 nM | GI50 [54]: 695 nM | TGI [54]: 3010 nM | GI50 [55]: 1890 nM | TGI [55]: > 100000 nM | GI50 [56]: 1480 nM | TGI [56]: 8910 nM | GI50 [57]: 602 nM | TGI [57]: 2630 nM
